One data set deals with ustekinumab. As to the kind of experiment: Stabilization at low pH, Sypro orange fluorescence (Example 45). To be noted: excipient 5 mg/mL, ustekinumab 1 mg/mL, glycine acidification buffer pH 2.6, Sypro orange fluorescence.
For data set [1], the system named is omalizumab. The experiment in a line: DLS viscosity of concentrated omalizumab (Example 54). In kind it is physicochemical. To be noted: concentrated omalizumab 9 parts : 1 part excipient stock (1 M or solubility limit), 20 mM HisHCl pH 6. As for the experimental part:
Hordenine HCl was purchased from Bulk Supplements (Henderson, NV).
The concentrated protein formulation was then combined with a stock excipient solution or a control at a ratio of 9 parts protein: 1 part excipient solution or buffer (for the control), and aliquots were added to the wells of a 384 well microplate (Aurora Microplates, Whitefish, MT). […] After the microplate was shaken, 2 microliters of a 5-fold dilution of polyethylene glycol surface-modified gold nanoparticles having a diameter of 100 nm (nanoComposix, San Diego, CA) in 20 mM His HCl were added to each sample well. […] In this example, the ratio of apparent radius to the actual radius of the gold nanoparticle was multiplied by the viscosity of water at 25° C. to calculate the viscosity of the protein formulation in centipoise (cP).

The subject of data set [2] is omalizumab. As to the kind of experiment: Diffusion interaction parameter kD of omalizumab by DLS (Example 62). To be noted: Table 62B series; omalizumab 10 to 0.6 mg/mL, 0.1M excipient, His HCl pH 6.0, 25° C.
For data set [3], the system named is omalizumab. The experiment in a line: Viscosity of omalizumab solution by DLS of gold nanoparticles (Example 62). To be noted: omalizumab approximately 200 mg/mL, excipient 0.1M or lower, His HCl pH 6.0, 25° C.
Data set [4] has as its system proteins described in Table 50. As to the kind of experiment: DLS diffusion interaction parameter kD (Example 49). In kind it is physicochemical. To be noted: excipient stock concentration 200 mM, mixed 1:1 with protein solution, 20 mM His HCl pH 6, 25° C. The protocol: The resulting solution was titrated to pH 6 by dropwise addition of 1 M hydrochloric acid. After pH adjustment, the buffer was diluted to a final volume of 1 L in a volumetric flask with Type 1 ultrapure water. All excipients used in this Example, listed in Table 50 below, were of the highest purity, and were obtained from Sigma Aldrich (St. Louis, MO) or Cayman Chemical (Ann Arbor, MI).
A series of six test protein solutions were prepared using the proteins described in Table 50, ranging in protein concentration from about 4 mg/mL to about 20 mg/mL, all in 20 mM His HCl buffer at pH 6. […] A second centrifuge step was completed to remove air bubbles. The diffusion interaction parameter (kD) of these protein-excipient formulations was measured by dynamic light scattering (DLS) in dilute solution as a way of probing the impact of excipients on protein-protein interactions (PPI). […] A more negative kD indicated a stronger net attractive PPI and a more positive kD indicated a stronger net repulsive PPI.

Where a name gives a salt, the structure may show the parent alone. Residues, ends and D or L forms follow the SMILES beside them.

With `Nc1nc(=O)n([C@@H]2CS[C@H](CO)O2)cc1F` [Emtricitabine], the “% change in stability” value with ustekinumab worked out at 2.9%. In the case of `CCc1ncc[nH]1` [Excipient 2-ethylimidazole, 2-ethylimidazole], in the data set on omalizumab [1], the “DLS Viscosity, Replicate 1” value amounted to 57.5 cP and the “DLS Viscosity, Replicate 2” value is 71.8 cP. In the data set on omalizumab [2], `NCCS` [cysteamine HCl] came in with a kD of -18.5 mL/g. Also, in the data set with omalizumab [3] (Table 62B series), the “Viscosity normalized to control” value stood at 0.73. The corresponding values for `O=C(O)[C@]1(O)C[C@@H](O)[C@@H](O)[C@H](O)C1` [quinic acid] are -24.2 mL/g and 0.67.

For `OC[C@@H](O)[C@@H](O[C@@H]1O[C@H](CO)[C@H](O)[C@H](O)[C@H]1O)[C@H](O)[C@@H](O)CO` [Lactitol], the “% change in stability” value in the data set with ustekinumab turned out to be 0.6%. On to `OC[C@H]1OC(O)[C@@H](O)[C@@H](O)[C@@H]1O` (stereo partly shown) [Mannose], for which the “% change in stability” value with ustekinumab is recorded as 9.4%. Compound `Nc1ccncc1` [Excipient 4-aminopyridine, 4-aminopyridine] registered a kD in the data set with omalizumab [2] of -22.5 mL/g. In the data set on omalizumab [3] (Table 62B series), the “Viscosity normalized to control” value is given as 0.59.

With `Cn1ccnc1` [Excipient 1-methylimidazole, 1-methylimidazole], in the data set on omalizumab [1], the “DLS Viscosity, Replicate 1” value was found to be 53.4 cP and the “DLS Viscosity, Replicate 2” value is on record as 54.8 cP.

As for `OC[C@@H](O)[C@@H](O)CO` [Erythritol], the “% change in stability” value with ustekinumab is 1.8%. Regarding `CN[C@@H]1[C@H](O)[C@H](NC)[C@H]2O[C@@]3(O)C(=O)C[C@@H](C)O[C@H]3O[C@@H]2[C@H]1O` [Spectinomycin], in the data set on omalizumab [1], the “DLS Viscosity, Replicate 1” value is given as 60.1 cP and the “DLS Viscosity, Replicate 2” value was determined as 33.9 cP. For the compound `COC(=O)[C@H](Cc1ccccc1)NC(=O)[C@@H](N)CC(=O)O` [Aspartame] (H-Asp-Phe-OMe), the “Viscosity normalized to control” value in the data set on omalizumab [3] (Table 62A series) was 0.71. Take `NC(=NO)c1ccccc1` [Benzamide oxime]: in the data set on ustekinumab, the “% change in stability” value is listed as 70.6%. For the compound `CN(C)CCc1ccc(O)cc1` [Hordenine HCl], in the data set with omalizumab [1], the “DLS Viscosity, Replicate 1” value amounted to 36.9 cP and the “DLS Viscosity, Replicate 2” value was determined as 22.8 cP. The corresponding values for `NCC(=O)NCC(=O)NCC(=O)NCC(=O)O` [Tetraglycine] (H-GGGG-OH) are 89.7 cP and 72.2 cP. For the compound `O=C(O)CN(CCN(CC(=O)O)CC(=O)O)CCN(CC(=O)O)CC(=O)O` [Diethylenetriaminepentaacetic acid], the “% change in stability” value in the data set on ustekinumab was found to be 11.8%. Regarding `Nc1ccn([C@@H]2O[C@H](COP(=O)(O)O)[C@@H](O)[C@H]2O)c(=O)n1` [Cytidine monophosphate], in the data set on ustekinumab, the “% change in stability” value was found to be 83.1%. Still for that read-out and setting: the result for Pyridyl ethylamine reads 85.6%. With `CCCCc1ncc[nH]1` [Excipient 2-butylimidazole, 2-butylimidazole], the “DLS Viscosity, Replicate 1” value in the data set on omalizumab [1] was found to be 26.0 cP. In the case of `Cc1ncc[nH]1` [Excipient 2-methylimidazole, 2-methylimidazole], in the data set with omalizumab [1], the “DLS Viscosity, Replicate 1” value worked out at 65.6 cP and the “DLS Viscosity, Replicate 2” value turned out to be 81.3 cP. Take `Cn1cnc(CC(=O)O)c1` [1-methyl-4-imidazoleacetic acid]: in data set [4], the “Omalizumab kD” value was -21.8 mL/g and the “Ustekinumab kD” value is 47.4 mL/g.

Consider `COc1cc(CC(=O)O)ccc1O` [Homovanillic acid], for which, in data set [4], the “Omalizumab kD” value is -21.2 mL/g and the “Ustekinumab kD” value stood at 5.5 mL/g. For the compound `CC[N+](CC)(CC)CC.Cl` [Tetraethylammonium HCl], in the data set on omalizumab [1], the “DLS Viscosity, Replicate 1” value is recorded as 73.7 cP and the “DLS Viscosity, Replicate 2” value is 58.3 cP.

For `O=S(=O)([O-])CCC[n+]1ccccc1` [3-(1-Pyridinio)-1-propanesulfonate], in data set [4], the “Omalizumab kD” value was -30.2 mL/g and the “Ustekinumab kD” value is on record as 26.7 mL/g. The corresponding values for `Cc1ncc(CO)c(CO)c1O.Cl` [pyridoxine HCl] are -4.3 mL/g and -0.5 mL/g. The corresponding values for `O=C(O)C1=CCNCC1` [Isoguvacine HCl] are -7.9 mL/g and 1.0 mL/g.

For the origin of these results see patent US20250186600A1, “EXCIPIENT COMPOUNDS FOR PROTEIN FORMULATIONS” (Comera Life Sciences, Inc., priority 2020, published 2025).
